Laboratory results as given in US6649595B2, “Regulation of biological events using novel compounds” (ARIAD Gene Therapeutics, Inc., priority 1995, dated 2003).
Where two headings read alike, the source gives them in different places.

Biological target: T1, FKBPwt (Homo sapiens, UniProt P62942)
T1 construct: made in house
Assay: Competitive fluorescence polarization (FP) binding assay of rapalogs to FKBP

[1] = =IC50/IC50 of rapamycin, C7 rapalogs
[2] = C7 rapalogs, read-out: FKBPwt FP binding assay IC50
[3] = FKBPwt FP binding assay IC50 (nM), C7 rapalogs
[4] = =IC50/IC50 of rapamycin, C24 analogs, Table 4
[5] = rapamycin C24 analogs, Table 4, read-out: FKBPwt FP binding assay IC50
[6] = FKBPwt FP binding assay IC50 (nM)

T1 sequence (P62942 whole entry): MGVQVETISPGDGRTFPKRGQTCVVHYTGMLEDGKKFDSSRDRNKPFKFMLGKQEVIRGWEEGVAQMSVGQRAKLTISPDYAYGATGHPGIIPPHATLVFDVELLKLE
Method: Serial 10-fold dilutions of each analog were prepared in 100% ethanol in glass vials and stored on ice. All other manipulations were performed at room temperature. […] Finally, a probe solution was prepared containing 10 nM AP1491 in 0.1% ethanol/FP buffer, and 100 μl added to each well with mixing.
The plates were stored covered in the dark for approximately 30 min to permit equilibration and then the fluorescence polarization of the sample in each well read on a Jolley FPM-2 FP plate reader (Jolley Consulting and Research, Inc., Grayslake, Ill.) in accordance with the manufacturer's recommendations. The mean polarization (mP units)
for each competitor concentration was usually converted to % total binding by reference to the control values and plotted (y) vs. log molar final concentration of competitor (x). Non-linear least square analysis was used to fit the curve and extract the IC50 using the following equation:
y=M1+(M4−M1)/(1+exp(M2*(M3−x)))
where M3 is the IC50. For incomplete curves the IC50 was determined by interpolation.

Compound	fold loss in affinity (cf rapamycin) [1]	IC50 [2] [nM]	fold loss in affinity (vs rapamycin) [4]	IC50 [5] [nM]	other results
CO[C@@H]1C[C@H](C[C@@H](C)[C@@H]2CC(=O)[C@H](C)/C=C(\C)[C@@H](O)[C@@H](OC)C(=O)[C@H](C)C[C@H](C)/C=C/C=C/C=C(\C)[C@@H](NS(C)(=O)=O)C[C@@H]3CC[C@@H](C)[C@@](O)(O3)C(=O)C(=O)N3CCCC[C@H]3C(=O)O2)CC[C@H]1O [Compound 33]	1.1	2.5			
CO[C@@H]1C[C@H](C[C@@H](C)[C@@H]2CC(=O)[C@H](C)/C=C(\C)[C@@H](O)[C@@H](OC)C(=O)[C@H](C)C[C@H](C)/C=C/C=C/C=C(\C)[C@H](c3ccco3)C[C@@H]3CC[C@@H](C)[C@@](O)(O3)C(=O)C(=O)N3CCCC[C@H]3C(=O)O2)CC[C@H]1O [Compound 35]	13				IC50 [3]: 29 nM
COc1ccc(C2CC3CCC(C)C(O)(O3)C(=O)C(=O)N3CCCCC3C(=O)OC(C(C)CC3CCC(O)C(OC)C3)CC(=O)C(C)C=C(C)C(O)C(OC)C(=O)C(C)CC(C)C=CC=CC=C2C)c(OC)c1 (single isomer, unassigned) [Compound 43]	8.7	20			
CCOC1C[C@@H]2CC[C@@H](C)[C@@](O)(O2)C(=O)C(=O)N2CCCC[C@H]2C(=O)OC([C@H](C)C[C@@H]2CC[C@@H](O)[C@H](OC)C2)CC(=O)[C@H](C)/C=C(\C)[C@@H](O)[C@@H](OC)C(=O)[C@H](C)C[C@H](C)/C=C/C=C/C=C/1C (stereo partly shown) [Compound 27]	1.1	2.6			
apamycin (E and Z)-24-(O-benzyloxime) [Compound 11]					fold loss in affinity (vs rapamycin): 3627; IC50 (read-out: FKBPwt FP binding assay IC50): 8340 nM
CON=C1CC(C(C)CC2CCC(O)C(OC)C2)OC(=O)C2CCCCN2C(=O)C(=O)C2(O)OC(CCC2C)CC(OC)C(C)=CC=CC=CC(C)CC(C)C(=O)C(OC)C(O)C(C)=CC1C (single isomer, unassigned) [Compound 6, Rapamycin (E and Z)-24-(O-methyloxime)]			190	438	
COC1CC2CCC(C)C(O)(O2)C(=O)C(=O)N2CCCCC2C(=O)OC(C(C)CC2CCC(O)C(OC)C2)CC(=NOCC(N)=O)C(C)C=C(C)C(O)C(OC)C(=O)C(C)CC(C)C=CC=CC=C1C (single isomer, unassigned) [Compound 16, Rapamycin (E and Z)-24-(O-carboxamidomethyloxime)]			88.7	204	
COc1ccc(C2CC3CCC(C)C(O)(O3)C(=O)C(=O)N3CCCCC3C(=O)OC(C(C)CC3CCC(O)C(OC)C3)CC(=O)C(C)C=C(C)C(O)C(OC)C(=O)C(C)CC(C)C=CC=CC=C2C)c(OC)c1 (single isomer, unassigned) [Compound 42]	1.0	2.2			
COC1CC2CCC(C)C(O)(O2)C(=O)C(=O)N2CCCCC2C(=O)OC(C(C)CC2CCC(O)C(OC)C2)C/C(=N/OC(C)(C)C)C(C)C=C(C)C(O)C(OC)C(=O)C(C)CC(C)C=CC=CC=C1C (stereo not shown) [Compound 19]			>13043	> 30000	
CO[C@@H]1C[C@H](C[C@@H](C)[C@@H]2CC(=O)[C@H](C)/C=C(\C)[C@@H](O)[C@@H](OC)C(=O)[C@H](C)C[C@H](C)/C=C/C=C/C=C(\C)[C@@H](c3ccc(C(C)(C)C)s3)C[C@@H]3CC[C@@H](C)[C@@](O)(O3)C(=O)C(=O)N3CCCC[C@H]3C(=O)O2)CC[C@H]1O [Compound 41]	1.3	2.9			
COC1CC2CCC(C)C(O)(O2)C(=O)C(=O)N2CCCCC2C(=O)OC(C(C)CC2CCC(O)C(OC)C2)CC(=NOCC(=O)O)C(C)C=C(C)C(O)C(OC)C(=O)C(C)CC(C)C=CC=CC=C1C (single isomer, unassigned) [Compound 14, Rapamycin (E and Z)-24-(O-carboxymethyloxime)]			1022	2350	
COC(=O)N[C@H]1C[C@@H]2CC[C@@H](C)[C@@](O)(O2)C(=O)C(=O)N2CCCC[C@H]2C(=O)O[C@H]([C@H](C)C[C@@H]2CC[C@@H](O)[C@H](OC)C2)CC(=O)[C@H](C)/C=C(\C)[C@@H](O)[C@@H](OC)C(=O)[C@H](C)C[C@H](C)/C=C/C=C/C=C/1C [Compound 32]	1.9	4.3			
COC1CC2CCC(C)C(O)(O2)C(=O)C(=O)N2CCCCC2C(=O)OC(C(C)CC2CCC(O)C(OC)C2)CC(=NOCC(=O)O)C(C)C=C(C)C(O)C(OC)C(=O)C(C)CC(C)C=CC=CC=C1C (single isomer, unassigned) [Compound 13, Rapamycin (E and Z)-24-(O-carboxymethyloxime)]			3461	7960	
CO[C@@H]1C[C@H](C[C@@H](C)[C@@H]2CC(=O)[C@H](C)/C=C(\C)[C@@H](O)[C@@H](OC)C(=O)[C@H](C)C[C@H](C)/C=C/C=C/C=C(\C)[C@@H](c3c[nH]c4ccccc34)C[C@@H]3CC[C@@H](C)[C@@](O)(O3)C(=O)C(=O)N3CCCC[C@H]3C(=O)O2)CC[C@H]1O [Compound 44]	3.3	7.8			
CO[C@@H]1C[C@H](C[C@@H](C)[C@@H]2CC(=O)[C@H](C)/C=C(\C)[C@@H](O)[C@@H](OC)C(=O)[C@H](C)C[C@H](C)/C=C/C=C/C=C(\C)[C@@H](OC(C)C)C[C@@H]3CC[C@@H](C)[C@@](O)(O3)C(=O)C(=O)N3CCCC[C@H]3C(=O)O2)CC[C@H]1O [Compound 29]	1.0	2.2			
CCc1ccc([C@@H]2C[C@@H]3CC[C@@H](C)[C@@](O)(O3)C(=O)C(=O)N3CCCC[C@H]3C(=O)O[C@H]([C@H](C)C[C@@H]3CC[C@@H](O)[C@H](OC)C3)CC(=O)[C@H](C)/C=C(\C)[C@@H](O)[C@@H](OC)C(=O)[C@H](C)C[C@H](C)/C=C/C=C/C=C/2C)s1 [Compound 39]	1.0	2.4			
CO[C@@H]1C[C@H](C[C@@H](C)[C@@H]2CC(=O)[C@H](C)/C=C(\C)[C@@H](O)[C@@H](OC)C(=O)[C@H](C)C[C@H](C)/C=C/C=C/C=C(\C)[C@H](c3ccc(C(C)(C)C)s3)C[C@@H]3CC[C@@H](C)[C@@](O)(O3)C(=O)C(=O)N3CCCC[C@H]3C(=O)O2)CC[C@H]1O [Compound 40]	1.5	3.4			
CCc1ccc([C@H]2C[C@@H]3CC[C@@H](C)[C@@](O)(O3)C(=O)C(=O)N3CCCC[C@H]3C(=O)O[C@H]([C@H](C)C[C@@H]3CC[C@@H](O)[C@H](OC)C3)CC(=O)[C@H](C)/C=C(\C)[C@@H](O)[C@@H](OC)C(=O)[C@H](C)C[C@H](C)/C=C/C=C/C=C/2C)s1 [Compound 38]	1.1	2.5			
CCO/N=C1/C[C@@H]([C@H](C)C[C@@H]2CC[C@@H](O)[C@H](OC)C2)OC(=O)[C@@H]2CCCCN2C(=O)C(=O)[C@]2(O)O[C@@H](CC[C@H]2C)C[C@H](OC)/C(C)=C/C=C/C=C/[C@@H](C)C[C@@H](C)C(=O)[C@H](OC)[C@H](O)/C(C)=C/[C@H]1C [Compound 7, Rapamycin (E and Z)-24-(O-ethyloxime)]			1287	2960	
COC1CC2CCC(C)C(O)(O2)C(=O)C(=O)N2CCCCC2C(=O)OC(C(C)CC2CCC(O)C(OC)C2)CC(=NOCC(C)C)C(C)C=C(C)C(O)C(OC)C(=O)C(C)CC(C)C=CC=CC=C1C (stereo not shown) [Compound 10, Rapamycin (E and Z)-24-(O-isobutyloxime)]			890		
CO[C@@H]1C[C@H](C[C@@H](C)[C@@H]2CC(=O)[C@H](C)/C=C(\C)[C@@H](O)[C@@H](OC)C(=O)[C@H](C)C[C@H](C)/C=C/C=C/C=C(\C)[C@@H](c3ccco3)C[C@@H]3CC[C@@H](C)[C@@](O)(O3)C(=O)C(=O)N3CCCC[C@H]3C(=O)O2)CC[C@H]1O [Compound 34]	12				IC50 [3]: 28 nM
COC1CC2CCC(C)C(O)(O2)C(=O)C(=O)N2CCCCC2C(=O)OC(C(C)CC2CCC(O)C(OC)C2)C/C(=N\O)C(C)C=C(C)C(O)C(OC)C(=O)C(C)CC(C)C=CC=CC=C1C (stereo not shown) [Compound 18]			25.7	59.1	
CO[C@@H]1C[C@H](C[C@@H](C)[C@@H]2CC(=O)[C@H](C)/C=C(\C)[C@@H](O)[C@@H](OC)C(=O)[C@H](C)C[C@H](C)/C=C/C=C/C=C(\C)[C@@H](c3ccc(C)s3)C[C@@H]3CC[C@@H](C)[C@@](O)(O3)C(=O)C(=O)N3CCCC[C@H]3C(=O)O2)CC[C@H]1O [Compound 36]					fold loss in affinity (cf rapamycin): 1.6; IC50 [6]: 3.7 nM
COC1CC2CCC(C)C(O)(O2)C(=O)C(=O)N2CCCCC2C(=O)OC(C(C)CC2CCC(O)C(OC)C2)C/C(=N\OC(C)(C)C)C(C)C=C(C)C(O)C(OC)C(=O)C(C)CC(C)C=CC=CC=C1C (stereo not shown) [Compound 20]			1046	2410	
COC1CC2CCC(C)C(O)(O2)C(=O)C(=O)N2CCCCC2C(=O)OC(C(C)CC2CCC(O)C(OC)C2)CC(=NOCC(N)=O)C(C)C=C(C)C(O)C(OC)C(=O)C(C)CC(C)C=CC=CC=C1C (single isomer, unassigned) [Compound 15, Rapamycin (E and Z)-24-(O-carboxamidomethyloxime)]			500	1150	
CO[C@@H]1C[C@H](C[C@@H](C)[C@@H]2CC(=O)[C@H](C)/C=C(\C)[C@@H](O)[C@@H](OC)C(=O)[C@H](C)C[C@H](C)/C=C/C=C/C=C(\C)[C@H](c3ccc(C)s3)C[C@@H]3CC[C@@H](C)[C@@](O)(O3)C(=O)C(=O)N3CCCC[C@H]3C(=O)O2)CC[C@H]1O [Compound 37]					fold loss in affinity (cf rapamycin): 1.9; IC50 [6]: 4.3 nM
COC1CC2CCC(C)C(O)(O2)C(=O)C(=O)N2CCCCC2C(=O)OC(C(C)CC2CCC(O)C(OC)C2)C/C(=N/O)C(C)C=C(C)C(O)C(OC)C(=O)C(C)CC(C)C=CC=CC=C1C (stereo not shown) [Compound 17]			269	618	
CCOC1C[C@@H]2CC[C@@H](C)[C@@](O)(O2)C(=O)C(=O)N2CCCC[C@H]2C(=O)OC([C@H](C)C[C@@H]2CC[C@@H](O)[C@H](OC)C2)CC(=O)[C@H](C)/C=C(\C)[C@@H](O)[C@@H](OC)C(=O)[C@H](C)C[C@H](C)/C=C/C=C/C=C/1C (stereo partly shown) [Compound 28]	1.6	3.7			
